Experimental data: paper PMC7591920, “A protein tertiary structure mimetic modulator of the Hippo signalling pathway” (Nature Communications, 2020)
Each block holds one compound with its values, some of them ahead of it. Bridge positions count the residues as written; N and C are the ends. Peptide text beside a SMILES is read from it.

How the values were obtained:
RKO cells [1] = experiment: Sub-cellular (cytoplasmic, nuclear) peptide concentration in RKO cells by UPLC-MS; settings: for Sub-cellular drug content, Cytoplasm / Sub-cellular drug content, Cytoplasm, Measured concentration / Sub-cellular drug content, Nuclear / Sub-cellular drug content, Nuclear, Measured concentration / Sub-cellular drug content, Cytoplasm, nMol / Sub-cellular drug content, Nuclear, nMol / Sub-cellular drug content, Cytoplasm, pMol.mg-1 / Sub-cellular drug content, Nuclear, pMol.mg-1: n = 2; for pMol/mg: Nuclear; for Cytoplasmic concentration of peptide: cytoplasmic fraction; for Nuclear concentration of peptide: nuclear fraction; for Sub-cellular drug content, Cytoplasm, pMol.mg-1 / Sub-cellular drug content, Nuclear, pMol.mg-1: per mg protein; for Cytoplasmic concentration, raw data / Nuclear concentration, raw data: sheet Figure 3c, 25 µM unlabelled peptide; for Intracellular concentration: mass spectrometry
Protocol: (§1) Peptides were incubated in RKO cells (ATCC, #CRL-2577) as follows: Experiment 1: RKO cells were incubated in 25 µM compound for 90 min and 24 h. Experiment 2: RKO cells were incubated in 25 µM for 30 min or 72 h. Following peptide incubation, the cells were washed twice with PBS, trypsinized and pelleted. The pellets were lysed in RIPA buffer (Perkin Elmer) for total lysis, or CelLytic NuCLEAR Extraction Kit (SIGMA) for subcellular fractionation. Total protein quantification BCA (Pierce) was performed prior to MS analysis to normalize sample data. Total and fractionated cell lysates were analysed by quantitative UPLC-MS utilizing a Waters Xevo TQ-XS (WBA0259) and an Acquity UPLC system from Waters consisting of Sample Manager (M16UFL953M), Acquity PDA (F17UPD457A), Column Oven (E17CMP703G) and Binary Solvent Manager (E17BUR621G). […] Chromatograms of the samples were treated similarly, and by linear regression (1/x) an in-cell concentration was established in the re-suspended cell lysate using the Waters MassLynx TargetLynx^TM product.

RKO cells [2] = experiment: Total drug content in RKO cells by UPLC-MS; settings: 25 µM compound; for Total drug content, Measured Concentration: RIPA total lysis, diluted lysate; for Total drug content, Measured Concentration / Total drug content / Measured Conc: UPLC-MS; for Total drug content, Measured Concentration / Total drug content: n = 2; for Total drug content: total lysis; for Measured Conc / pMol/mg of protein, Mean / pMol/mg, Mean: total drug content; for pMol/mg of protein, Mean / pMol/mg, Mean: mean of 2 replicates
Protocol: as §1

mTEAD4 = target: T1, mTEAD4 (Mus musculus, UniProt Q62296); experiment: SPR binding to immobilised mTEAD4; settings: mTEAD4 amine-coupled on CM5, multi-cycle, steady-state fit 1:1 model, 10 mM HEPES 150 mM NaCl 0.05% Tween-20 pH 7.4, 0.3% DMSO, 20 °C, Fig. 1 values n = 1 replicate
T1 construct: Mouse TEAD4(210–427) cDNA fused with a 6x His-tag and a 3C protease cleavage site; 6x His-tag; 3C protease cleavage site; made in house; host or cells: E. coli BL21 DE3 RIL(K+)
Protocol: Sensor chips Series S CM5 (Research grade) were obtained from GE Healthcare. Prior to use, the sensor chips were equilibrated at room temperature for 15 min to prevent water condensation on the detector side of the sensor chip surface. A running buffer was prepared composed of 10 mM HEPES, 150 mM NaCl, and 0.05% (w/v) Tween-20, pH 7.4, and the system was equilibrated at 20 °C using a flow rate of 30 µL min^−1 after docking of the sensor chip. Ligand binding experiments have been performed applying the concept of multi-cycle kinetics. A contact time of 45 s was selected, followed by a 6-min dissociation phase to allow for complete dissociation of the analyte prior to the next cycle. […] Typically, seven concentrations of the analytes have been examined applying a threefold dilution pattern with 30 µM as top concentration. For the analysis, five running buffer blanks were injected to equilibrate the instrument. […] The carboxyl-dextran surface was activated for 7 min with 0.05 M NHS and 0.2 M EDC, followed by an injection of the proteins in 10 mM MES pH 6.4 at a concentration of 30–50 µg mL^−1. […] This was followed by a deactivation of the residual esters by injecting a solution of 0.5 M ethanolamine pH 8.0 for 7 min before engaging in ligand binding experiments. Reference surfaces were prepared accordingly, omitting the injection of protein over the activated reference surface.

[3] = 25 µM compound, 90 minutes, fractionation, UPLC-MS
[4] = 25 µM compound, 24 hours, fractionation, UPLC-MS
[5] = 90 minutes, dilution factor 10, replicate 1
[6] = 90 minutes, dilution factor 10, replicate 2
[7] = 24 hours, dilution factor 10, replicate 1
[8] = 24 hours, dilution factor 10, replicate 2

T1 sequence (Q62296 210-427): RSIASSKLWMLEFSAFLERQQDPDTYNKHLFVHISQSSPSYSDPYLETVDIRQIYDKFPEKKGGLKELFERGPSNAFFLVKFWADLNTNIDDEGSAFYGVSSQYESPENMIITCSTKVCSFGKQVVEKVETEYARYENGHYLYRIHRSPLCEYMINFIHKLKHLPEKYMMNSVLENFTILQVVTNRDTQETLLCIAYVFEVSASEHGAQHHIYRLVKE

SMILES: CC(=O)NCC(=O)N[C@@H](CCCNC(=N)N)C(=O)N[C@@H](CCCCN)C(=O)N[C@@H](CCCCN)C(=O)N[C@@H](CCCNC(=N)N)C(=O)N[C@@H](CCCNC(=N)N)C(=O)N[C@@H](CCC(N)=O)C(=O)N[C@@H](CCCNC(=N)N)C(=O)N[C@@H](CCCNC(=N)N)C(=O)N[C@@H](CCCNC(=N)N)C(=O)N1CCC[C@H]1C(=O)N[C@@H](CCC(N)=O)C(N)=O [Tat, reference compound]
Sub-cellular drug content, Cytoplasm (RKO cells [1]; [3]): 0.137 nmol | Sub-cellular drug content, Cytoplasm, Measured concentration (RKO cells [1]; [3]): 91.363 ± 8.748 nM | Sub-cellular drug content, Nuclear (RKO cells [1]; [3]): 0.6254 nmol | Sub-cellular drug content, Nuclear, Measured concentration (RKO cells [1]; [3]): 416.901 ± 142.802 nM | Sub-cellular drug content, Cytoplasm (RKO cells [1]; [4]): 0.1476 nmol | Sub-cellular drug content, Cytoplasm, Measured concentration (RKO cells [1]; [4]): 98.42 ± 12.91 nM | Sub-cellular drug content, Nuclear (RKO cells [1]; [4]): 0.9853 nmol | Sub-cellular drug content, Nuclear, Measured concentration (RKO cells [1]; [4]): 656.841 ± 162.534 nM | pMol/mg, Mean (RKO cells [1]; Cytoplasm, 25 µM compound, 90 minutes (1.5 hrs), mean of 2 replicates): 209 pMol/mg | pMol/mg (RKO cells [1]; 25 µM compound, 90 minutes (1.5 hrs), replicate 1): 2567 pMol/mg | pMol/mg (RKO cells [1]; 25 µM compound, 90 minutes (1.5 hrs), replicate 2): 4988 pMol/mg | Cytoplasmic concentration of peptide (RKO cells [1]; UPLC-MS, mean of n = 2): 231.15 pMols/mg of protein | Nuclear concentration of peptide (RKO cells [1]; UPLC-MS, mean of n = 2): 3777.5 pMols/mg of protein | Total drug content, Measured Concentration (RKO cells [2]; 90 minutes): 478.752 ± 163.021 nM | Total drug content, Measured Concentration (RKO cells [2]; 24 hours): 1797.357 ± 596.21 nM | Total drug content (RKO cells [2]; 24 hours): 2.696 ± 0.8943 nmol | Measured Conc (RKO cells [2]; [5]): 641.773 nM | Measured Conc (RKO cells [2]; [6]): 315.731 nM | pMol/mg of protein, Mean (RKO cells [2]; 90 minutes): 882.5 pMol/mg of protein | Measured Conc (RKO cells [2]; [7]): 2393.57 nM | Measured Conc (RKO cells [2]; [8]): 1201.15 nM | pMol/mg, Mean (RKO cells [2]; 24 hours): 1647 pMol/mg

Sub-cellular drug content, Cytoplasm, Measured concentration (RKO cells [1]; [3]): < LLOQ | Sub-cellular drug content, Cytoplasm, nMol (RKO cells [1]; [3]): < LLOQ | Sub-cellular drug content, Nuclear, Measured concentration (RKO cells [1]; [3]): < LLOQ | Sub-cellular drug content, Nuclear, nMol (RKO cells [1]; [3]): < LLOQ | Sub-cellular drug content, Cytoplasm, pMol.mg-1 (RKO cells [1]; [3]): < LLOQ | Sub-cellular drug content, Nuclear, pMol.mg-1 (RKO cells [1]; [3]): < LLOQ | Sub-cellular drug content, Cytoplasm, Measured concentration (RKO cells [1]; [4]): < LLOQ | Sub-cellular drug content, Cytoplasm, nMol (RKO cells [1]; [4]): < LLOQ | Sub-cellular drug content, Nuclear, Measured concentration (RKO cells [1]; [4]): < LLOQ | Sub-cellular drug content, Nuclear, nMol (RKO cells [1]; [4]): < LLOQ | Sub-cellular drug content, Cytoplasm, pMol.mg-1 (RKO cells [1]; [4]): < LLOQ | Sub-cellular drug content, Nuclear, pMol.mg-1 (RKO cells [1]; [4]): < LLOQ | Cytoplasmic concentration of peptide (RKO cells [1]; UPLC-MS, raw data replicate 1): <LLOQ | Cytoplasmic concentration of peptide (RKO cells [1]; UPLC-MS, raw data replicate 2): <LLOQ | Nuclear concentration of peptide (RKO cells [1]; UPLC-MS, raw data replicate 1): <LLOQ | Nuclear concentration of peptide (RKO cells [1]; UPLC-MS, raw data replicate 2): <LLOQ | Cytoplasmic concentration, raw data (RKO cells [1]; UPLC-MS, replicate 1): <LLOQ | Nuclear concentration, raw data (RKO cells [1]; UPLC-MS, replicate 1): <LLOQ | Cytoplasmic concentration, raw data (RKO cells [1]; UPLC-MS, replicate 2): <LLOQ | Nuclear concentration, raw data (RKO cells [1]; UPLC-MS, replicate 2): <LLOQ | Detection in cytoplasmic and nuclear fractions (RKO cells [1]; unlabelled peptide 25 µM, 90 min and 24 h, fractionation, UPLC-MS): not detected in subcellular fractions | Intracellular concentration (RKO cells [1]; unlabelled peptide 25 µM, 90 min incubation, n = 2 biological replicates): < LLOQ | Intracellular concentration (RKO cells [1]; unlabelled peptide 25 µM, 24 hours incubation, N = 2 biological replicates): < LLOQ | Total drug content, Measured Concentration (RKO cells [2]; 90 minutes): 1133.521 ± 133.393 nM | Total drug content (RKO cells [2]; 90 minutes): 1.7 ± 0.2001 nmol | Total drug content, Measured Concentration (RKO cells [2]; 24 hours): 322.145 ± 33.657 nM | Total drug content (RKO cells [2]; 24 hours): 0.4832 ± 0.05049 nmol | Measured Conc (RKO cells [2]; [5]): 1266.91 nM | Measured Conc (RKO cells [2]; [6]): 1000.13 nM | pMol/mg of protein, Mean (RKO cells [2]; 90 minutes): 1685.1 pMol/mg of protein | Measured Conc (RKO cells [2]; [7]): 355.802 nM | Measured Conc (RKO cells [2]; [8]): 288.488 nM | pMol/mg, Mean (RKO cells [2]; 24 hours): 331.25 pMol/mg
SMILES: CC[C@H](C)[C@H](NC(=O)[C@H](CCC(N)=O)NC(=O)[C@H](CC(C)C)NC(=O)[C@H](Cc1c[nH]c2ccccc12)NC(=O)[C@@H](NC(=O)[C@H](CC(=O)O)NC(=O)CNC(=O)[C@H](CC(C)C)NC(=O)[C@H](C)NC(=O)[C@H](CCCCN)NC(=O)[C@H](C)NC(=O)[C@H](Cc1ccccc1)NC(=O)[C@H](Cc1c[nH]cn1)NC(=O)[C@H](CC(=O)O)NC(=O)[C@H](CC(=O)O)NC(=O)[C@@H](NC(=O)[C@H](CO)NC(C)=O)C(C)C)[C@@H](C)O)C(=O)N[C@@H](CCCCN)C(=O)N[C@@H](C)C(=O)N[C@@H](C)C(N)=O [compound 4] (Ac-SVDDHFAKALGDTWLQIKAA-NH2)

Kd (mTEAD4): 1500 ± 370 nM
SMILES: CC[C@H](C)[C@@H]1NC(=O)[C@H](CCC(N)=O)NC(=O)[C@H](CC(C)C)NC(=O)[C@H](Cc2c[nH]c3ccccc23)NC(=O)[C@H]([C@@H](C)O)NC(=O)[C@H](CC(=O)O)NC(=O)CNC(=O)[C@H](CC(C)C)NC(=O)[C@H](C)NC(=O)[C@H](CCCCN)NC(=O)[C@H](C)NC(=O)[C@H](Cc2ccccc2)NC(=O)[C@H](Cc2c[nH]cn2)NC(=O)[C@H](CC(=O)O)NC(=O)[C@@H](NC(=O)[C@H](C)NC(=O)[C@H](CO)NC(C)=O)CCC(=O)NCCCC[C@@H](C(=O)N[C@@H](C)C(=O)N[C@@H](C)C(N)=O)NC1=O [compound 15] (Ac-SAEDHFAKALGDTWLQIKAA-NH2; lactam 3-18)

Kd (mTEAD4): 2000 ± 140 nM
SMILES: CC[C@H](C)[C@@H]1NC(=O)[C@H](CCC(N)=O)NC(=O)[C@H](C)NC(=O)[C@H](Cc2c[nH]c3ccccc23)NC(=O)[C@H]([C@@H](C)O)NC(=O)[C@H](CC(=O)O)NC(=O)CNC(=O)[C@H](CC(C)C)NC(=O)[C@H](C)NC(=O)[C@H](CCCCN)NC(=O)[C@H](C)NC(=O)[C@H](Cc2ccccc2)NC(=O)[C@H](Cc2c[nH]cn2)NC(=O)[C@H](CC(=O)O)NC(=O)[C@@H](NC(=O)[C@@H](NC(=O)[C@H](CO)NC(C)=O)C(C)C)CCC(=O)NCCCC[C@@H](C(=O)N[C@@H](C)C(=O)N[C@@H](C)C(N)=O)NC1=O [compound 24] (Ac-SVEDHFAKALGDTWAQIKAA-NH2; lactam 3-18)
